The values below are quoted from earlier work in patent US20080305186A1, “Method and Composition for the Treatment of Cardiac Hypertrophy” (BOARD OF REGENTS, THE UNIVERSITY OF TEXAS SYSTEM, priority 2007, published 2008).

The test system of data set [1] is isoproterenol-, angiotensin II- and aortic banding induced cardiac hypertrophy. Particulars: cited from earlier work.
In a further data set the test system is Histone Deacetylase. Particulars: cited from earlier work.

In the case of `CCCC(CCC)C(=O)O` [valproic acid], the “attenuation of cardiac hypertrophy” value in data set [1] was “attenuate”. In the data set with Histone Deacetylase, the “inhibition of Histone Deacetylase (HDAC)” value was “inhibit HDAC”.
